Measurements reported in US9175011B2, “Morpholino substituted urea or carbamate derivatives as MTOR inhibitors” (CELLZOME LIMITED, priority 2011, dated 2015).

Assays:
[1] = molecular target: T1, mTOR (Homo sapiens, UniProt P42345); test: mTOR kinobeads assay (Jurkat cell lysate, dot blot detection); format: binding; details: read-out: Inhibition values (IC50) mTor
T1 construct: Jurkat cells were homogenized in a Potter S homogenizer in lysis buffer; endogenous in cells; host or cells: Jurkat, clone E6-1 (ATCC TIB-152) lysate
Summary of the method: (§1)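 Readout by specific-antibody dot blot of kinase pulled down from Jurkat lysate on mixed immobilized-ligand beads. Compounds competed for binding over three hours in a cold room; IC50 taken from dose-response curves.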

[2] = molecular target: T2, PI3K alpha (PI3Kα) (Homo sapiens, UniProt P42336); test: kinobeads assay, PI3K alpha; format: binding; details: Jurkat cell lysate, read-out: Inhibition values (IC50) PI3Ka
T2 construct: Jurkat cells were homogenized in a Potter S homogenizer in lysis buffer; endogenous in cells; host or cells: Jurkat, clone E6-1 (ATCC TIB-152) lysate
Summary of the method: as §1

[3] = molecular target: T3, PI3K beta (PI3Kb) (Homo sapiens, UniProt P42338); test: kinobeads assay, PI3K beta; format: binding; details: Jurkat cell lysate, read-out: Inhibition values (IC50) PI3Kb
T3 construct: Jurkat cells were homogenized in a Potter S homogenizer in lysis buffer; endogenous in cells; host or cells: Jurkat, clone E6-1 (ATCC TIB-152) lysate
Summary of the method: as §1

[4] = molecular target: T4, PI3K gamma (PI3Kg) (Homo sapiens, UniProt P48736); test: kinobeads assay, PI3K gamma; format: binding; details: Jurkat cell lysate, read-out: Inhibition values (IC50) PI3Kg
T4 construct: Jurkat cells were homogenized in a Potter S homogenizer in lysis buffer; endogenous in cells; host or cells: Jurkat, clone E6-1 (ATCC TIB-152) lysate
Summary of the method: as §1

[5] = molecular target: T5, PI3K delta (PI3Kd) (Homo sapiens, UniProt O00329); test: kinobeads assay, PI3K delta; format: binding; details: Jurkat cell lysate, read-out: Inhibition values (IC50) PI3Kd
T5 construct: Jurkat cells were homogenized in a Potter S homogenizer in lysis buffer; endogenous in cells; host or cells: Jurkat, clone E6-1 (ATCC TIB-152) lysate
Summary of the method: as §1

[6] = molecular target: T6, DNA-dependent protein kinase (DNA-PK) (Homo sapiens, UniProt P78527); test: kinobeads assay, DNA-PK; format: binding; details: Jurkat cell lysate, read-out: Inhibition values (IC50) DNA-PK
T6 construct: Jurkat cells were homogenized in a Potter S homogenizer in lysis buffer; endogenous in cells; host or cells: Jurkat, clone E6-1 (ATCC TIB-152) lysate
Summary of the method: as §1

[7] = tested on: S6RP serine-240/244 phosphorylation; test: In vitro phospho-S6 cellular assay (HEK293T/17); format: cell-based; details: Homo sapiens; HEK293T/17 cells, 2 hours, pS6RP Ser240/244; read-out: Inhibition values (IC50) pS6
Summary of the method: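 HEK293T/17 cells in DMEM with 2% FCS were exposed to 8 compound concentrations (0.1% DMSO) for 2 h at 37 °C, then lysed. pS6RP Ser240/244 or pAkt Ser473 in the lysates was quantified by MSD sandwich electrochemiluminescence. IC50 was obtained by sigmoidal variable-slope nonlinear regression.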

[8] = tested on: Akt serine-473 phosphorylation; test: In vitro phospho-Akt cellular assay (HEK293T/17); format: cell-based; details: Homo sapiens; HEK293T/17 cells, 2 hours, pAkt Ser 473; read-out: Inhibition values (IC50) pAkt
Source text: Activation of mTOR signaling results in phosphorylation of several downstream targets. In cells, mTOR exists in two different protein complexes. The mTOR Complex-1 (mTORC1) phosphorylates and activates S6 Kinase 1 (S6K1) and S6 Kinase 2 (S6K2) (also known as p70S6K) which then phosphorylate S6 Ribosomal Protein (S6RP) (also known as RPS6)3. S6RP is phosphorylated on serine 235, senile 236, serine 240 and serine 244 by both pS6K1 and pS6K2. The mTOR Complex-2 (mTORC2) phosphorylates AKT on serine 473 which activates the AKT signaling pathway.
The assay measures a test compound's inhibition of S6RP serine-240/244 phosphorylation and inhibition of Akt serine-473 phosphorylation in human embryonic kidney derived HEK293T/17 cells (ATCC CRL-11268).
The HEK293T/17 cell line is maintained in DMEM media (Invitrogen catalogue number 41965-039) supplemented with 10% FCS at 37° C. in a 5% CO2 humidified incubator. Cells are seeded in 96-well plates at 40,000 cells/well (pS6RP S240/244 assay) or 80,000 cells/well (pAkt 5473 assay) in 90 μl growth media (DMEM, 2% FCS). Plates are incubated for 1 hour in a humidified incubator to allow the cells to adhere. Cells are treated with 8 concentrations of test compounds or DMSO alone for controls (final DMSO concentration 0.1%) and incubated at 37° C. for 2 hours. Then 20 μl of 5× concentrated lysis buffer (750 mM NaCl, 100 mM Tris pH7.4, 5 mM ADTA, 5 mM EGTA, 5% Triton X-100) is added, plates are sealed and incubated for 15 minutes at 4° C. with gentle shaking After cell lysis, 25 μl cell lysate is transferred to a MesoScale plate coated with an antibody to pS6RP Ser240/244 (MesoScale Discovery K150DGD-3) or an antibody to pAkt Ser 473 (MesoScale Discovery K151DGD-3). Plates have been blocked before by incubation with 150 μl MesoScale Discovery Blocking Solution-A for 1 hour at room temperature followed by washing with 150 μl 1×Tris wash buffer per well. After the transfer of the cell lysate to the MSD plate, the pS6RP (or pAkt) protein is captured on the coated antibody by incubation at room temperature for 1 hour with gentle shaking. After the capture step the plate is washed three times with 150 μl of 1× Tris wash buffer per well. Then 25 μl detection antibody conjugated with a Sulfo-Tag is added and incubated for 1 hour at room temperature with gentle shaking. Subsequently the antibody solution is removed and the plate is washed 3 times with 150 μl 1×Tris wash buffer per well and 150 μl Read buffer is added. The plates are analysed on a MSD 2400 Plate Reader (MesoScale Discovery). Data analysis is performed using nonlinear regression for a sigmoidal dose-response with a variable slope.

T5 sequence (O00329 whole entry): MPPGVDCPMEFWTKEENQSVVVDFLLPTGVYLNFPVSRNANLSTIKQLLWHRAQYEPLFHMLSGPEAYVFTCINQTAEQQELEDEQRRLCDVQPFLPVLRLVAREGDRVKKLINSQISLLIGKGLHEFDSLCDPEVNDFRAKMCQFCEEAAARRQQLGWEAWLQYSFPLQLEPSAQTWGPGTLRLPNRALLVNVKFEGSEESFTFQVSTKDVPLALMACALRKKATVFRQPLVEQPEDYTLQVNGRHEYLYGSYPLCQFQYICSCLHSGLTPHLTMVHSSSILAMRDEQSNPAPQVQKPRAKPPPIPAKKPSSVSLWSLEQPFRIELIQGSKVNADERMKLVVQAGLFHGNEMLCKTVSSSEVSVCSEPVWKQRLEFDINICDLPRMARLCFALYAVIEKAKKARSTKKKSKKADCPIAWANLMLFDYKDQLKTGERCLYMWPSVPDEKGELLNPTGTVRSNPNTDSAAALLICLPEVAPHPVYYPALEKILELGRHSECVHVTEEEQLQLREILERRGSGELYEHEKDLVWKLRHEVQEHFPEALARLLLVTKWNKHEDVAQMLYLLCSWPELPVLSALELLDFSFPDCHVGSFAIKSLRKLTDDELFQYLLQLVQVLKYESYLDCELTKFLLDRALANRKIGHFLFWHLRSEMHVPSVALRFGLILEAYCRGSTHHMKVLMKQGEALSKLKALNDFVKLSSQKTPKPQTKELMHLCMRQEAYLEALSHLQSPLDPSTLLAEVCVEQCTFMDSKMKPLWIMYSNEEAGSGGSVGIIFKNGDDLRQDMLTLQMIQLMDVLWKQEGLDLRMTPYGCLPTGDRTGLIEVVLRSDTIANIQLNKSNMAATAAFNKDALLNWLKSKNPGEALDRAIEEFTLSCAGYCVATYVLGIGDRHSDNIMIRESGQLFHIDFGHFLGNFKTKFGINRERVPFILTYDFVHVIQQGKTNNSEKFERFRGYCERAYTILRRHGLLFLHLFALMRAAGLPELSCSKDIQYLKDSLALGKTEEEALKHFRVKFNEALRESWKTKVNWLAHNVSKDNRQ
T5 sequence (P27986 whole entry partner): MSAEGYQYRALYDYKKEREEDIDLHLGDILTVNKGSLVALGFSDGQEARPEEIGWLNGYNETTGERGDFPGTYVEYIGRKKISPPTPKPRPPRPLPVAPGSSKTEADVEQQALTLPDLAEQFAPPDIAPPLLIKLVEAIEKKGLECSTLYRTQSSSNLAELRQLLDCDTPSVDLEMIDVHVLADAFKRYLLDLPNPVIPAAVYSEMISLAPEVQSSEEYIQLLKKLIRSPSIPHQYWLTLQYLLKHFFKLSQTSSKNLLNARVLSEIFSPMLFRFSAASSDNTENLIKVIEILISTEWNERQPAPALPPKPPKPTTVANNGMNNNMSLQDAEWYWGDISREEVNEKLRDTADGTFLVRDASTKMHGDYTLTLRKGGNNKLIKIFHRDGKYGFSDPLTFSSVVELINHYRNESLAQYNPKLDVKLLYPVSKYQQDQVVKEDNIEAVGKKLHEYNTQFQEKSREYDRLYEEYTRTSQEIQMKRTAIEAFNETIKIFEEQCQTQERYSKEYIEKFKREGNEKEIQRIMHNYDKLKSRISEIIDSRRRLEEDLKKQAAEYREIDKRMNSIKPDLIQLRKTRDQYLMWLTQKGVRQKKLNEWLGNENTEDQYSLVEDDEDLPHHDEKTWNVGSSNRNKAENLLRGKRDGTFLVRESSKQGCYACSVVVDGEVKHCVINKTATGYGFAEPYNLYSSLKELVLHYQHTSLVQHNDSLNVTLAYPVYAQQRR
T2 sequence (P42336 whole entry): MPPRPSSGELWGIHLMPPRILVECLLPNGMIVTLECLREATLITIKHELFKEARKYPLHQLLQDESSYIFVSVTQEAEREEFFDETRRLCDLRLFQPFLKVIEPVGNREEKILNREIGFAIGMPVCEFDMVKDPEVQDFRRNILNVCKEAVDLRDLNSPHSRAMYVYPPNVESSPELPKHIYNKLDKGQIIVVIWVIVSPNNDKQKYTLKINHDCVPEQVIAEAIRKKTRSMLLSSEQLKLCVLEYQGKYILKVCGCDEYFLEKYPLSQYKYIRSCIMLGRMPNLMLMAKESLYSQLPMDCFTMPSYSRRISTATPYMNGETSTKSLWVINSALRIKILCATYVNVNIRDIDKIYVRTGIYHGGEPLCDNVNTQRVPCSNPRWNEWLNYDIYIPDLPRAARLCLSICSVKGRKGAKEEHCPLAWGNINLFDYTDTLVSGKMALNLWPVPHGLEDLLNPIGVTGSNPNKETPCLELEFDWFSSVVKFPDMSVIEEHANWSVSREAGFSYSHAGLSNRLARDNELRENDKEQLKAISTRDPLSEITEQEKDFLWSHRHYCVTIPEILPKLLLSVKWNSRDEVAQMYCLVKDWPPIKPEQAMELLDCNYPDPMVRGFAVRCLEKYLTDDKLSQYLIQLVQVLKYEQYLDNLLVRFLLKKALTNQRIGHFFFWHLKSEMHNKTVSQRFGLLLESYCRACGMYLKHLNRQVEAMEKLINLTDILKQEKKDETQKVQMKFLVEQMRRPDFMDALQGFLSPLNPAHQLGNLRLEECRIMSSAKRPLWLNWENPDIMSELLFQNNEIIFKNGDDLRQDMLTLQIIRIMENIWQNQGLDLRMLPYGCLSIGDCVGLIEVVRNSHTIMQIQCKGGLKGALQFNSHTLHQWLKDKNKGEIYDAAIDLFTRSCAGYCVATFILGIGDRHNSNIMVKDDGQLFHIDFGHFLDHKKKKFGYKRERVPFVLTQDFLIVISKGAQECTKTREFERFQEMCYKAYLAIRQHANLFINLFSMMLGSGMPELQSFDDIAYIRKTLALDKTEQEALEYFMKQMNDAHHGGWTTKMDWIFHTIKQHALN
T2 sequence (P27986 whole entry partner): as the sequence (P27986 whole entry partner) above
T3 sequence (P42338 whole entry): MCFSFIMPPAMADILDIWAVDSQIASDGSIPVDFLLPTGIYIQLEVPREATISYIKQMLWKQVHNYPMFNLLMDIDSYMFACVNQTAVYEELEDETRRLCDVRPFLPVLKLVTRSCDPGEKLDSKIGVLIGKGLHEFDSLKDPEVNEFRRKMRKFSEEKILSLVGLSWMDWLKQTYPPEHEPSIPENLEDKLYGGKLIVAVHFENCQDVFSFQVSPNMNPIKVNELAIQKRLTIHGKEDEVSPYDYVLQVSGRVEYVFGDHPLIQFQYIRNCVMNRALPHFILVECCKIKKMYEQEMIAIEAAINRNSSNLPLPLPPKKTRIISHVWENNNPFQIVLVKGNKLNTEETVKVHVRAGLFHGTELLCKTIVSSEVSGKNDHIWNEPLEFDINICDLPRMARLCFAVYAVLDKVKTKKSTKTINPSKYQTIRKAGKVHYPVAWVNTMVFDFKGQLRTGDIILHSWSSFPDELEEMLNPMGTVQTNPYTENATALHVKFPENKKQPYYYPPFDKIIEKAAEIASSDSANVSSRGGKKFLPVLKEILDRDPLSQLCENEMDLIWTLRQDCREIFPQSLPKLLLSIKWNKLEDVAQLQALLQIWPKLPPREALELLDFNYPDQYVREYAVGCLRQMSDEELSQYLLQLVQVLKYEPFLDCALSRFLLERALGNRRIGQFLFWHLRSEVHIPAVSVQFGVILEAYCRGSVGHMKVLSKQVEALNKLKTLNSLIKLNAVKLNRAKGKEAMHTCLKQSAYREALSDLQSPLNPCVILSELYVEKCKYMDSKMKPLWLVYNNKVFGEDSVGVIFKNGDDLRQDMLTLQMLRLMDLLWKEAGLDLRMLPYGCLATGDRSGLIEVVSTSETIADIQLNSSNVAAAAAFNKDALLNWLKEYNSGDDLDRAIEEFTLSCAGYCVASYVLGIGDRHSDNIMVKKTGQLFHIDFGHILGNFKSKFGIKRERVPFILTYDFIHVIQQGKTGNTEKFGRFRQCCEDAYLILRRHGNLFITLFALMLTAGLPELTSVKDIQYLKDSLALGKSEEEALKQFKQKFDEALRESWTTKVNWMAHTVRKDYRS
T3 sequence (P27986 whole entry partner): as the sequence (P27986 whole entry partner) above
T4 sequence (P48736 whole entry): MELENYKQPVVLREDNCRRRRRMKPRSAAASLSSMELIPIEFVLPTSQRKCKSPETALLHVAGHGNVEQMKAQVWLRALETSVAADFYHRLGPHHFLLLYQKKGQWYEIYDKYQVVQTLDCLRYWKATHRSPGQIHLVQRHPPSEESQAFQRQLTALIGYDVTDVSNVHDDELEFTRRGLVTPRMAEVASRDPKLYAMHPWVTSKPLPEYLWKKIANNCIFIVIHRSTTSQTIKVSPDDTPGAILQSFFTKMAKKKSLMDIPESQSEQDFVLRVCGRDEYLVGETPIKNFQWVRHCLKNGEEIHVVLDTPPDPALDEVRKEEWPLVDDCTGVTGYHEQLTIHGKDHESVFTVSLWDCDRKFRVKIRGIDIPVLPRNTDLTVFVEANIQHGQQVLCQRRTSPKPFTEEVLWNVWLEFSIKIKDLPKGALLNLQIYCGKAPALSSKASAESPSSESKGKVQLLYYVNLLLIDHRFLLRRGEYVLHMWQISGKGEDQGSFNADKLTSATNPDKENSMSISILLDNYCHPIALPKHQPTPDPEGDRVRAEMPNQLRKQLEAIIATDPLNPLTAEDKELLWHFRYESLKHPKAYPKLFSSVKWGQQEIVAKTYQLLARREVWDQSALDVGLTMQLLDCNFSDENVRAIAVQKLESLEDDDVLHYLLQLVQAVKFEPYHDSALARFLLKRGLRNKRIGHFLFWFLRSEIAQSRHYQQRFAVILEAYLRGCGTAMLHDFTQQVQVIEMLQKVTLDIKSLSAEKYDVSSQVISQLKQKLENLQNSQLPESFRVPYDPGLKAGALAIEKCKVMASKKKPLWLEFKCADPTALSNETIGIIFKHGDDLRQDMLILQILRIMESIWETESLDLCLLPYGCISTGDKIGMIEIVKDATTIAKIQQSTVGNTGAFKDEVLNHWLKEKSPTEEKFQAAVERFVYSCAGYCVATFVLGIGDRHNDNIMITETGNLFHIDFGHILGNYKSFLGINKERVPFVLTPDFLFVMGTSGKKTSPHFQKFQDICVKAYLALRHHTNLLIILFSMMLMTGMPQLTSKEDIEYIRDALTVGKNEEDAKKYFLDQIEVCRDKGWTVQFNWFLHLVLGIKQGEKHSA

Compound	IC50 [1] [nM]	IC50 [2] [µM]	IC50 [3] [µM]	IC50 [4] [µM]	IC50 [5] [µM]	IC50 [6] [µM]	IC50 [7] [nM]	IC50 [8] [nM]
C[C@H]1COCCN1c1nc(-c2ccc(NC(=O)NCC(F)F)cc2)nc(-c2ccccc2S(C)(=O)=O)n1 [Example 8, (S)-1-(2,2-difluoroethyl)-3-(4-(4-(3-methylmorpholin)-6-(2-(methylsulfonyl)phenyl)-1,3,5-triazin-2-yl)phenyl)urea]	< 100	> 10	> 10	> 10	> 10	> 10	< 100	< 100
CCNC(=O)Nc1ccc(-c2nc(-c3ccccc3S(C)(=O)=O)nc(N3CCOC[C@@H]3C)n2)cc1 [Example 10, (S)-1-ethyl-3-(4-(4-(3-methylmorpholino)-6-(2-(methylsulfonyl)phenyl)-1,3,5-triazin-2-yl)phenyl)urea]	< 100	> 10	> 10	> 10	> 10	> 10	< 100	< 100
C[C@H]1COCCN1c1nc(-c2ccc(NC(=O)NC3CC3)cc2)nc(-c2cc(F)ccc2S(C)(=O)=O)n1 [Example 5, (S)-1-cyclopropyl-3-(4-(4-(5-fluoro-2-(methylsulfonyl)phenyl)-6-(3-methylmorpholino)-1,3,5-triazin-2-yl)phenyl)urea]	100 to 1000	> 10	> 10	> 10	> 10	> 10	< 100	< 100
C[C@H]1COCCN1c1nc(-c2ccc(NC(=O)NCCO)cc2)nc(-c2cc(F)ccc2S(C)(=O)=O)n1 [Example 6, (S)-1-(4-(4-(5-fluoro-2-(methylsulfonyl)phenyl)-6-(3-methylmorpholino)-1,3,5-triazin-2-yl)phenyl)-3-(2-hydroxyethyl)urea]	< 100	> 10	> 10	> 10	> 10	> 10	100 to 1000	< 100
C[C@H]1COCCN1c1nc(-c2ccc(NC(=O)NCCF)cc2)nc(-c2ccccc2S(C)(=O)=O)n1 [Example 7, (S)-1-(2-fluoroethyl)-3-(4-(4-(3-methylmorpholino)-6-(2-(methylsulfonyl)phenyl)-1,3,5-triazin-2-yl)phenyl)urea]	< 100	> 10	> 10	> 10	> 10	> 10	< 100	< 100
C[C@H]1COCCN1c1nc(-c2ccc(NC(=O)NC3CC3)cc2)nc(-c2ccccc2S(C)(=O)=O)n1 [Example 1, (S)-1-cyclopropyl-3-(4-(4-(3-methylmorpholino)-6-(2-(methylsulfonyl)phenyl)-1,3,5-triazin-2-yl)phenyl)urea]	< 100	> 10	> 10	> 10	> 10	> 10	< 100	< 100
C[C@H]1COCCN1c1nc(-c2ccc(NC(=O)NCCO)cc2)nc(-c2ccccc2S(C)(=O)=O)n1 [Example 4, (S)-1-(2-hydroxyethyl)-3-(4-(4-(3-methylmorpholino)-6-(2-(methylsulfonyl)phenyl)-1,3,5-triazin-2-yl)phenyl)urea]	< 100	> 10	> 10	> 10	> 10	> 10	< 100	< 100
CNC(=O)Nc1ccc(-c2nc(-c3ccccc3S(C)(=O)=O)nc(N3CCOC[C@@H]3C)n2)cc1 [Example 14, (S)-1-methyl-3-(4-(4-(3-methylmorpholino)-6-(2-(methylsulfonyl)phenyl)-1,3,5-triazin-2-yl)phenyl)urea]	100 to 1000	> 10	> 10	> 10	> 10	> 10	< 100	< 100
C[C@H]1COCCN1c1nc(-c2ccc(NC(=O)NC3COC3)cc2)nc(-c2ccccc2S(C)(=O)=O)n1 [Example 9, (S)-1-(4-(4-(3-methylmorpholin)-6-(2-(methylsulfonyl)phenyl)-1,3,5-triazin-2-yl)phenyl)-3-(oxetan-3-yl)urea]	100 to 1000	> 10	> 10	> 10	> 10	> 10	100 to 1000	
CC(C)CNC(=O)Nc1ccc(-c2nc(-c3ccccc3S(C)(=O)=O)nc(N3CCOC[C@@H]3C)n2)cc1 [Example 19, (S)-1-isobutyl-3-(4-(4-(3-methylmorpholino)-6-(2-(methylsulfonyl)phenyl)-1,3,5-triazin-2-yl)phenyl)urea]	1000 to 10000	> 10	> 10	> 10	> 10	> 10	100 to 1000	
C[C@H]1COCCN1c1nc(-c2ccc(NC(=O)NC3CC3)cc2)nc(-c2cccnc2S(C)(=O)=O)n1 [Example 24, (S)-1-cyclopropyl-3-(4-(4-(3-methylmorpholino)-6-(2-(methylsulfonyl)pyridin-3-yl)-1,3,5-triazin-2-yl)phenyl)urea]	< 100	> 10	1 to 10	> 10	1 to 10	> 10	< 100	< 100
C[C@H]1COCCN1c1nc(-c2ccc(NC(=O)Nc3ccncc3)cc2)nc(-c2ccccc2S(C)(=O)=O)n1 [Example 35, (S)-1-(4-(4-(3-methylmorpholino)-6-(2-(methylsulfonyl)phenyl)-1,3,5-triazin-2-yl)phenyl)-3-(pyridin-4-yl)urea]	100 to 1000	> 10	> 10	> 10	> 10	> 10	< 100	
C[C@H]1COCCN1c1nc(-c2ccc(NC(=O)NCC(F)(F)F)cc2)nc(-c2ccccc2S(C)(=O)=O)n1 [Example 32, (S)-1-(4-(4-(3-methylmorpholino)-6-(2-(methylsulfonyl)phenyl)-1,3,5-triazin-2-yl)phenyl)-3-(2,2,2-trifluoroethyl)urea]	100 to 1000	> 10	> 10	> 10	> 10	> 10	< 100	
